Where “and” joins values, the source holds several entries; their conditions need not be identical. Equal entries are not always repeated. Where two headings read alike, the source gives them in different places.
How the values were obtained:
Type in all cases: biochemical
DAOC synthase [1] = target: T1, DAOC synthase (Streptomyces clavuligerus, UniProt P18548); experiment: Cofactor and metal ion requirement and stimulation of DAOC synthase activity
Experimental: (§1) The enzymatic reaction was initiated by addition of penicillin N and was conducted for 15 min at 36° C. The synthase activity was determined by monitoring DAOC formation at 260 nm with HPLC as described by Dotzlaf, J. E., and Yeh, W. K (1987), J. Bacteriol 169, 1611-1618.

DAOC synthase [2] = target: T1, DAOC synthase; experiment: DAOC synthase activity assay: effect of metal chelators, sulfhydryl reagents and other inhibitors
Experimental: ^1 Enzymatic reactions were conducted in the presence of […]
FeSO4 and 0.1 mM DTT. The enzyme was incubated with the indicated
inhibitor for 1 min prior to the initiation of the reaction with
as §1

purified synthase [3] = target: T2, purified synthase (Streptomyces clavuligerus, UniProt P18548); experiment: Hydroxylase activity (conversion to DAC)
T2 sequence (P18548 whole entry): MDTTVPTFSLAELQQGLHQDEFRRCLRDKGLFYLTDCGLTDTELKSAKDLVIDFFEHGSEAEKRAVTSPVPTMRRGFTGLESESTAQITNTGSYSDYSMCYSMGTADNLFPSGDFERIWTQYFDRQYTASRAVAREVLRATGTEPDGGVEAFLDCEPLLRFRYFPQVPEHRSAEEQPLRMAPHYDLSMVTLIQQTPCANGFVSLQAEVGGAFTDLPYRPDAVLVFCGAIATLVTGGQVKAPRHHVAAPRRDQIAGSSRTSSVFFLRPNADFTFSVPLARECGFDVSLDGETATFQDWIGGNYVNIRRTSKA

DAOC synthase [4] = target: T1, DAOC synthase; experiment: Substrate specificity of DAOC synthase (HPLC detection); settings: optimum conditions for converting penicillin N to DAOC; HPLC detectable
native synthase = target: T3, native synthase (Streptomyces clavuligerus, UniProt P18548); experiment: Kinetics of native synthase, partially purified (Mono Q eluate); settings: native partially purified enzyme; Tris-HCl buffer, 36° C.
T3 construct: native synthase, evaluated with the partially purified enzyme; endogenous in cells; host or cells: Streptomyces clavuligerus cells, crude extract, three-step purification (Mono Q eluate)
T3 sequence (P18548 whole entry): as above

[5] = target: T4, recombinantly produced DAOC synthase (Streptomyces clavuligerus, UniProt P18548); experiment: Kinetics of recombinant enzyme (Lineweaver-Burk); settings: pH 7.0, 50 mM HEPES buffer, 36° C.
T4 construct: made in house; host or cells: Escherichia coli K12 JM109 (plasmid pOW382)
T4 sequence (P18548 whole entry): as above
Experimental: The kinetics of the native enzyme and recombinant enzyme were determined under the optimal reaction conditions for the enzyme, i.e., at pH 7.0 in 50 mM HEPES buffer at 36° C.

purified synthase [6] = target: T2, purified synthase; experiment: Stoichiometric analysis of conversion of penicillin N to DAOC; settings: over 60 min of the reaction
Experimental: In the conversion of penicillin N to DAOC by the purified synthase provided herein, the molar ratio for DAOC formation/penicillin N disappearance over 60 min of the reaction remained in the range of 0.90-0.98 as shown in FIG. 5. The conversion of penicillin N to DAOC was 94% complete under the reaction conditions.

[7] = metal ions: order Zn2+ > Co2+ > Ni2+
[8] = additive 0.1 mM, 0.06 mN FeSO4, 0.1 mM DTT, 1 min incubation with inhibitor before penicillin N
[9] = additive 1.0 mM, 0.06 mN FeSO4, 0.1 mM DTT, 1 min incubation with inhibitor before penicillin N

T1 sequence (P18548 whole entry): as above

For O[C@H](CS)[C@H](O)CS (racemic) [DTT, dithiothreitol], the “stimulation of DAOC synthase activity” value (DAOC synthase [1]) was “stimulated” and the “restoration of synthase activity after DTNB inactivation” value (DAOC synthase [2]; 2 mM DTT added, 30 min) was “fully restored”.
With C=C1CS[C@@H]2[C@H](NC(=O)CCCC(N)C(=O)O)C(=O)N2C1C(=O)O (stereo partly drawn) [3-exomethylenecephalosporin C, 7β-(α-aminoadipamido)-3-exomethylenecepham-4-carboxylic acid] the “conversion to DAC by the purified synthase” value (purified synthase [3]) was “possesses the ability to convert 3-exomethylenecephalosporin C to DAC” and the “inhibition of DAOC synthase activity (in words)” value (“inhibition” for short) (DAOC synthase [2]; [7]) was “strong inhibitor”.
For CC1(C)S[C@@H]2[C@H](N)C(=O)N2[C@H]1C(=O)O [6-aminopenicillanic acid], the “synthase activity with the compound as substrate” value (shortened to “synthase activity … as substrate”) (DAOC synthase [4]) was “No synthase activity was observed”.
For Nc1ncnc2c1ncn2[C@@H]1O[C@H](COP(=O)(O)OP(=O)(O)OP(=O)(O)O)[C@@H](O)[C@H]1O [ATP, adenosine triphosphate], the “stimulation of DAOC synthase activity” value (DAOC synthase [1]) was “No detectable stimulation”.
With CC1=C(C(=O)O)N2C(=O)[C@@H](NC(=O)CCC[C@@H](N)C(=O)O)[C@H]2SC1 [DAOC, deacetoxycephalosporin C] the “conversion to DAC by the purified synthase” value (purified synthase [3]) was “lacks the hydroxylase activity for converting DAOC to DAC”.
With O=C(O)c1cc(SSc2ccc([N+](=O)[O-])c(C(=O)O)c2)ccc1[N+](=O)[O-] [DTNB, 5,5'-dithiobis-2-nitrobenzoic acid] the “inactivation of the enzyme” value (DAOC synthase [2]; 0.2 mM DTNB, 0.5 min, 4° C.) was “complete inactivation”, the “Relative Activity (%)” value (DAOC synthase [2]; [8]) was 70% and the “Relative Activity (%)” value (DAOC synthase [2]; [9]) was 0%. For the same molecule, the “inhibition” value (DAOC synthase [2]; [7]) was “highly susceptible to inhibition”.
O=C(O)CN(CCN(CC(=O)O)CC(=O)O)CC(=O)O [EDTA, ethylenediamine tetraacetic acid] was tested, and the “inhibition” value (DAOC synthase [2]) was “highly sensitive to inhibition”.
In the case of [Fe+3] [Ferric ion], the “replacement of ferrous ion for expression of enzyme activity” value (“replacement of ferrous ion” below) (DAOC synthase [1]; in the presence of DTT and ascorbate, enzyme slightly less active) is reported as “can substitute for ferrous ion”.
For O=C(O)CI [Iodoacetic acid, iodoacetic acid], the “Relative Activity (%)” value (DAOC synthase [2]) was 100% and 65% and the “inhibition” value (DAOC synthase [2]) was “slightly inhibited”.
CCN1C(=O)C=CC1=O [NEM, N-ethylmaleimide] was tested, and the “Relative Activity (%)” value (DAOC synthase [2]; [8]) was 55%, the “Relative Activity (%)” value (DAOC synthase [2]; [9]) was 0% and the “inhibition” value (DAOC synthase [2]; [7]) was “highly susceptible to inhibition”.
With CC1(C)S[C@@H]2[C@H](NC(=O)[C@H](N)c3ccccc3)C(=O)N2[C@H]1C(=O)O [ampicillin] the “synthase activity … as substrate” value (DAOC synthase [4]) was “No synthase activity was observed”.
In the case of [Ca] [calcium], the “replacement of ferrous ion” value (DAOC synthase [1]) is reported as “could not be replaced”.
With [Co+2] [cobaltous] the “replacement of ferrous ion” value (DAOC synthase [1]) was “could not be replaced” and the “inhibition” value (DAOC synthase [2]; [7]) was “inhibited”.
[Cu+] [cuprous] was tested, and the “replacement of ferrous ion” value (DAOC synthase [1]) was “could not be replaced”.
[Fe+2] [ferrous ion] was tested, and the “requirement for expression of catalytic activity” value (DAOC synthase [1]) was “requires”, the Ka (native synthase) was 4 µM and the Ka [5] was 8 µM.
CC1(C)S[C@@H]2[C@H](NC(=O)CCC[C@H](N)C(=O)O)C(=O)N2[C@H]1C(=O)O [isopenicillin N] was tested, and the “synthase activity … as substrate” value (DAOC synthase [4]) was “No synthase activity was observed”.
With [Mg] [magnesium] the “replacement of ferrous ion” value (DAOC synthase [1]) was “could not be replaced”.
In the case of [Mn+2] [manganous], the “replacement of ferrous ion” value (DAOC synthase [1]) is reported as “could not be replaced”.
For [Ni+2] [nickel], the “replacement of ferrous ion” value (DAOC synthase [1]) was “could not be replaced” and the “inhibition” value (DAOC synthase [2]; [7]) was “inhibited”.
c1cnc2c(c1)ccc1cccnc12 [o-Phenanthroline, 1,10-phenanthroline] was tested, and the “Relative Activity (%)” value (DAOC synthase [2]; additive 0.02 mM, 0.06 mN FeSO4, 0.1 mM DTT, 1 min incubation with inhibitor before penicillin N) was 63%, the “Relative Activity (%)” value (DAOC synthase [2]; additive 0.2 mM, 0.06 mN FeSO4, 0.1 mM DTT, 1 min incubation with inhibitor before penicillin N) was 0% and the “inhibition” value (DAOC synthase [2]; [7]) was “highly sensitive to inhibition”.
For O=O [oxygen], the “requirement for expression of catalytic activity” value (DAOC synthase [1]) was “requires”.
In the case of O=C(O)c1cc[c]([Hg+])cc1.[OH-] [p-HMB, p-hydroxymercuribenzoate], the “Relative Activity (%)” value (DAOC synthase [2]; [8]) is reported as 0%, the “Relative Activity (%)” value (DAOC synthase [2]; [9]) is reported as 0% and the “inhibition” value (DAOC synthase [2]; [7]) is reported as “highly susceptible to inhibition”.
In the case of CC1(C)S[C@@H]2[C@H](NC(=O)Cc3ccccc3)C(=O)N2[C@H]1C(=O)O [penicillin G], the “synthase activity … as substrate” value (DAOC synthase [4]) is reported as “No synthase activity was observed”.
CC1(C)S[C@@H]2[C@H](NC(=O)CCC[C@@H](N)C(=O)O)C(=O)N2[C@H]1C(=O)O [penicillin N] was tested, and the “molar ratio for DAOC formation/penicillin N disappearance” value (purified synthase [6]) was 0.90-0.98.
For CC1(C)S[C@@H]2[C@H](NC(=O)COc3ccccc3)C(=O)N2[C@H]1C(=O)O [penicillin V], the “synthase activity … as substrate” value (DAOC synthase [4]) was “No synthase activity was observed”.
[K+] [potassium] was tested, and the “replacement of ferrous ion” value (DAOC synthase [1]) was “could not be replaced”.
For [Na+] [sodium], the “replacement of ferrous ion” value (DAOC synthase [1]) was “could not be replaced”.
[Zn+2] [zinc] was tested, and the “replacement of ferrous ion” value (DAOC synthase [1]) was “could not be replaced” and the “inhibition” value (DAOC synthase [2]; [7]) was “inhibited”.

Reference: patent publication US5082772A, “Process for preparing deacetylcephalosporin C” (priority 1988, dated 1992)
